From ChEMBL document CHEMBL1201862, “PubChem BioAssay data set” (2004)
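Values below derive from 48-hour exposures of cells grown in 96-well plates, with endpoints linearly interpolated between the two concentrations bracketing the appropriate inhibition level. Here, GI50 denotes the concentration required for 50% inhibition of growth.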 Active and inactive are the calls of the source. Cut-off read from the data, not from the text of the source: active = GI50 up to about 1.1 µM and inactive = higher.

Tests used:
Test in all cases: DTP human tumour cell line panel, 48 h
[1] = test system: EKVX
[2] = test system: IGROV-1
[3] = test system: K562
[4] = test system: LOX IMVI
[5] = test system: M14
[6] = test system: Malme-3M
[7] = test system: OVCAR-3
[8] = test system: RPMI-8226
[9] = test system: SF-539
[10] = test system: SN12C
[11] = test system: SNB-75
[12] = test system: SW-620
[13] = test system: U-251
[14] = test system: CAKI-1
[15] = test system: OVCAR-4
[16] = test system: SK-MEL-2

Compound	GI50 [1]	GI50 [2]	GI50 [3]	GI50 [4]	GI50 [5]	GI50 [6]	GI50 [7]	GI50 [8]	GI50 [9]	GI50 [10]	GI50 [11]	GI50 [12]	GI50 [13]	GI50 [14]	GI50 [15]	GI50 [16]
COC(=O)/C1=C/C2CC(/C=C(/c3ccccc3)C(=O)O1)C2	40.3 µM (inactive)	42.4 µM (inactive)	27.8 µM (inactive)	17.5 µM (inactive)	29.2 µM (inactive)	12.1 µM (inactive)	33.2 µM (inactive)	18.3 µM (inactive)	33.3 µM (inactive)	24.4 µM (inactive)	5.93 µM (inactive)	33.7 µM (inactive)	19.7 µM (inactive)			
C/C(CC(=O)Nc1cccc(C)c1C)=N\NC(N)=S	> 100 µM (inactive)	> 100 µM (inactive)	> 100 µM (inactive)	> 100 µM (inactive)	> 100 µM (inactive)	> 100 µM (inactive)	> 100 µM (inactive)	40.8 µM (inactive)	> 100 µM (inactive)	> 100 µM (inactive)	> 100 µM (inactive)		> 100 µM (inactive)	> 100 µM (inactive)	> 100 µM (inactive)	> 100 µM (inactive)
CC(C)c1ccc(C2C3=C(N=C4SCC(=O)N42)C(=O)c2ccccc23)cc1 (stereo unspecified)	77.3 µM (inactive)	> 100 µM (inactive)	54 µM (inactive)		> 100 µM (inactive)	> 100 µM (inactive)	60 µM (inactive)	43.3 µM (inactive)	> 100 µM (inactive)	41 µM (inactive)	22.3 µM (inactive)	> 100 µM (inactive)	74 µM (inactive)	99.1 µM (inactive)	43.4 µM (inactive)	> 100 µM (inactive)
CC(C)(C)C1CCC2c3c([nH]c4ccccc34)C3C(=O)N(c4ccc(Br)cc4)C(=O)C3C2C1 (stereo unspecified)	22 µM (inactive)	21.1 µM (inactive)	15.7 µM (inactive)	15.7 µM (inactive)	26.1 µM (inactive)	33.9 µM (inactive)		17.1 µM (inactive)	21.1 µM (inactive)	11.4 µM (inactive)	19.5 µM (inactive)	19.8 µM (inactive)		19.9 µM (inactive)	16.9 µM (inactive)	19 µM (inactive)
O=C(c1cc(=O)c2ccc(O)cc2o1)c1ccc(Cl)cc1Cl	50.2 µM (inactive)	17.7 µM (inactive)	0.547 µM (active)	3.15 µM (inactive)	5.12 µM (inactive)	34.4 µM (inactive)	15.5 µM (inactive)	9.66 µM (inactive)		17.2 µM (inactive)	> 82.2 µM (inactive)	12.2 µM (inactive)	20.6 µM (inactive)	> 69.7 µM (inactive)	12 µM (inactive)	26 µM (inactive)
Cc1cccc(C(C)(C)C)c1NC(=O)C(=O)Cc1nc2ccccc2s1	27.4 µM (inactive)	> 100 µM (inactive)	> 100 µM (inactive)	> 100 µM (inactive)	> 100 µM (inactive)	> 100 µM (inactive)	> 100 µM (inactive)	> 100 µM (inactive)	> 100 µM (inactive)	> 100 µM (inactive)	> 100 µM (inactive)	> 100 µM (inactive)	> 100 µM (inactive)	> 100 µM (inactive)	> 100 µM (inactive)	> 100 µM (inactive)
COc1nc(=O)cc(N)n1C1OC(CO)C(O)C1O (stereo unspecified)	> 100 µM (inactive)	> 100 µM (inactive)	> 100 µM (inactive)	> 100 µM (inactive)	> 100 µM (inactive)	> 100 µM (inactive)	> 100 µM (inactive)	> 100 µM (inactive)	> 100 µM (inactive)	> 100 µM (inactive)	> 100 µM (inactive)	> 100 µM (inactive)	> 100 µM (inactive)	> 100 µM (inactive)		> 100 µM (inactive)
CC(C)(C)CC(C)(C)c1cc2c(O)c(c1)Cc1cc(C(C)(C)CC(C)(C)C)cc(c1O)Cc1cc(C(C)(C)CC(C)(C)C)cc(c1O)Cc1cc(C(C)(C)CC(C)(C)C)cc(c1O)Cc1cc(C(C)(C)CC(C)(C)C)cc(c1O)Cc1cc(C(C)(C)CC(C)(C)C)cc(c1O)Cc1cc(C(C)(C)CC(C)(C)C)cc(c1O)Cc1cc(C(C)(C)CC(C)(C)C)cc(c1O)C2	> 100 µM (inactive)	> 100 µM (inactive)	> 100 µM (inactive)		> 100 µM (inactive)	> 100 µM (inactive)	> 100 µM (inactive)	> 100 µM (inactive)	> 100 µM (inactive)	> 100 µM (inactive)	23.9 µM (inactive)	> 100 µM (inactive)	> 100 µM (inactive)		> 100 µM (inactive)	> 100 µM (inactive)
N#C/C(=C/c1ccc([N+](=O)[O-])o1)c1ccccc1	> 100 µM (inactive)		> 100 µM (inactive)	> 100 µM (inactive)	> 100 µM (inactive)	> 100 µM (inactive)	> 100 µM (inactive)	> 100 µM (inactive)	> 100 µM (inactive)	> 100 µM (inactive)	97.7 µM (inactive)	> 100 µM (inactive)	> 100 µM (inactive)	> 100 µM (inactive)	> 100 µM (inactive)	> 100 µM (inactive)
Cc1cc(NS(=O)(=O)c2ccc(Nc3c4ccccc4nc4c(C(=O)Nc5ccc(S(N)(=O)=O)cc5)cccc34)cc2)no1	> 100 µM (inactive)	70.1 µM (inactive)	44.3 µM (inactive)	35 µM (inactive)	> 100 µM (inactive)	17.9 µM (inactive)	16 µM (inactive)	> 100 µM (inactive)	21.3 µM (inactive)	36.2 µM (inactive)	72.8 µM (inactive)	74.3 µM (inactive)	24.8 µM (inactive)	> 100 µM (inactive)	23.4 µM (inactive)	24.1 µM (inactive)
C=C(c1ccccc1N)[C@@]1(O)C[C@H](/C(=C\C)CO)C[C@@H]1NCc1ccccc1	37.1 µM (inactive)	31.9 µM (inactive)	18.6 µM (inactive)	17.1 µM (inactive)	15.2 µM (inactive)	13.4 µM (inactive)	18.2 µM (inactive)	19.1 µM (inactive)	16.3 µM (inactive)	32 µM (inactive)	10.8 µM (inactive)	21.7 µM (inactive)	17.2 µM (inactive)		26.7 µM (inactive)	22.2 µM (inactive)
CC1OC(n2cc(Cl)c(=O)[nH]c2=O)C=C(OC(=O)c2ccccc2)C1=O (stereo unspecified)	> 100 µM (inactive)	> 100 µM (inactive)	> 100 µM (inactive)	> 100 µM (inactive)	> 100 µM (inactive)	> 100 µM (inactive)	> 100 µM (inactive)	> 100 µM (inactive)	> 100 µM (inactive)	> 100 µM (inactive)	> 100 µM (inactive)	> 100 µM (inactive)	> 100 µM (inactive)	> 100 µM (inactive)	> 100 µM (inactive)	> 100 µM (inactive)
S=P(c1ccccc1)(c1ccccc1)C1(C2(P(=S)(c3ccccc3)c3ccccc3)CC2)CC1	> 100 µM (inactive)	> 100 µM (inactive)	> 100 µM (inactive)	> 100 µM (inactive)	> 100 µM (inactive)				> 100 µM (inactive)	> 100 µM (inactive)	> 100 µM (inactive)	> 100 µM (inactive)	> 100 µM (inactive)		> 100 µM (inactive)	> 100 µM (inactive)
O=C(CSc1nc(-c2ccccc2)c(-c2ccccc2)[nH]1)N/N=C/c1ccc(O)cc1	30.1 µM (inactive)	26.4 µM (inactive)	23.6 µM (inactive)	17.9 µM (inactive)	19 µM (inactive)	21.4 µM (inactive)	18.2 µM (inactive)	25.7 µM (inactive)	19.1 µM (inactive)	26.4 µM (inactive)	19.7 µM (inactive)	30.8 µM (inactive)	20.3 µM (inactive)			24.5 µM (inactive)
O=S(=O)(/C=C/C(=C/c1ccccc1)S(=O)(=O)c1ccccc1)c1ccccc1	1.77 µM (inactive)	4.06 µM (inactive)	1 µM (active)	0.658 µM (active)	1.28 µM (inactive)	1.81 µM (inactive)	1.73 µM (inactive)	0.61 µM (active)	1.77 µM (inactive)	1.7 µM (inactive)	1.87 µM (inactive)	2.04 µM (inactive)	1.83 µM (inactive)	1.51 µM (inactive)	1.67 µM (inactive)	1.89 µM (inactive)
Cc1cc(NS(=O)(=O)c2ccc(NC(=O)c3cccc4c(N)c5ccccc5nc34)cc2)no1	90.8 µM (inactive)	27.5 µM (inactive)	31.2 µM (inactive)	23.4 µM (inactive)	27.5 µM (inactive)	30.9 µM (inactive)	21.7 µM (inactive)	24 µM (inactive)	21.1 µM (inactive)	19.2 µM (inactive)	68.7 µM (inactive)	30 µM (inactive)	26.6 µM (inactive)	34.8 µM (inactive)	27.3 µM (inactive)	18.7 µM (inactive)
COc1cc(Nc2nc3cc(C)ccc3nc2-c2ccccc2)cc(OC)c1OC	20.7 µM (inactive)	63.8 µM (inactive)	23.4 µM (inactive)	27.2 µM (inactive)	29.3 µM (inactive)	29.6 µM (inactive)	18.5 µM (inactive)			28.7 µM (inactive)	22.7 µM (inactive)	58.1 µM (inactive)	35 µM (inactive)	27.5 µM (inactive)	33 µM (inactive)	23 µM (inactive)
COC(=O)c1cccc2cccc(C(=O)Nc3ccc(Cl)cc3)c12	23.2 µM (inactive)		0.142 µM (active)	0.664 µM (active)	0.951 µM (active)	> 100 µM (inactive)	29.2 µM (inactive)	2.09 µM (inactive)	21.3 µM (inactive)	> 100 µM (inactive)	> 100 µM (inactive)	11.4 µM (inactive)	39.7 µM (inactive)	> 100 µM (inactive)	> 100 µM (inactive)	1.84 µM (inactive)
